Results from ChEMBL document CHEMBL5331103, “Discovery of novel 2-hydroxyl-4-benzyloxybenzyl aniline derivatives as potential multifunctional agents for the treatment of Parkinson's disease” (Eur J Med Chem, 2023).
The source made the active and inactive calls. No cut-off for these calls is given here.

Assays:
[1] = molecular target: T1, Amine oxidase [flavin-containing] B (Homo sapiens, UniProt P27338)
T1 sequence (P27338 whole entry): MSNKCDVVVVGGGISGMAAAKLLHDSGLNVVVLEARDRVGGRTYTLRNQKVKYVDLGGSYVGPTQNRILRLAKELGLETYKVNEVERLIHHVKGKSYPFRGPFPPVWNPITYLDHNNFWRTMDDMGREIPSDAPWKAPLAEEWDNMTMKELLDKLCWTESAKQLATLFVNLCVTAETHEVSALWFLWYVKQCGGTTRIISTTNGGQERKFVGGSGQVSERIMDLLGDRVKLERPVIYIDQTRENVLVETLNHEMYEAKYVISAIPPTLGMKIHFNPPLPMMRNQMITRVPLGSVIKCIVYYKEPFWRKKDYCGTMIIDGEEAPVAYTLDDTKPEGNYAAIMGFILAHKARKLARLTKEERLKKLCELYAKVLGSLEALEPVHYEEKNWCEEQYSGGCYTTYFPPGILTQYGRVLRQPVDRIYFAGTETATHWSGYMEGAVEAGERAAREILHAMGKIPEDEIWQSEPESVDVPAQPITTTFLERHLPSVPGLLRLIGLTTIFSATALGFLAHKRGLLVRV
Description: Inhibition of MAO-B (unknown origin) using kynuramine as substrate preincubated for 30 mins followed by substrate addition and measured after 30 mins by fluorescence based analysis

[2] = molecular target: T2, Amine oxidase [flavin-containing] A (Homo sapiens, UniProt P21397); assay: Inhibition of MAO-A (unknown origin) using kynuramine as substrate at 10 uM preincubated for 30 mins followed by substrate addition and measured after 30 mins by fluorescence based analysis relative to control; details: 0.5 h, time 60 min
T2 sequence (P21397 whole entry): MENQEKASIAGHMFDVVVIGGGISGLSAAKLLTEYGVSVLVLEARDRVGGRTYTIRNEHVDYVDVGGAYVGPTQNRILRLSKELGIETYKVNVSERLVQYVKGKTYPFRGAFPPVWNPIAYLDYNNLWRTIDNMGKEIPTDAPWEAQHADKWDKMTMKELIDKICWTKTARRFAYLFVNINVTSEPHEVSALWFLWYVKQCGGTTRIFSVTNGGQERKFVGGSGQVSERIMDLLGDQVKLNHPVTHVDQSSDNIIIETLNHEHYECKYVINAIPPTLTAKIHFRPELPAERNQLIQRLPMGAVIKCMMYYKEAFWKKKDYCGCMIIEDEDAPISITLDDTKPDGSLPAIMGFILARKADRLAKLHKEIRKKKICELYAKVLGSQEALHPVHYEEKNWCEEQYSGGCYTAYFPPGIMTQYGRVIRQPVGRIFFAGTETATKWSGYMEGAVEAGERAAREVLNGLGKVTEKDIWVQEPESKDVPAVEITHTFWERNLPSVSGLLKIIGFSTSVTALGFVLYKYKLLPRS

Mus musculus = species on record: Mus musculus; details: C57BL/6C, dose 50.0 mg/kg, route ig, time 3.0 weeks
BV-2 [3] = assay: Cytotoxicity against mouse BV-2 cells assessed as reduction in cell viability upto 10 uM incubated for 30 mins by MTT assay; format: toxicity, cell-based; details: bv-2, 0.5 h
PC-12 [4] = assay: Neuroprotective activity against H2O2-induced cell damage in rat PC-12 cells assessed as increase in cell viability at 10 uM preincubated for 2 hrs followed by H2O2 addition and measured after 24 hrs by MTT assay (reference value: 50.3%); format: functional; details: time 26 hrs
BV-2 [5] = assay: Inhibition of LPS-induced ROS production in mouse BV-2 cells at 10 uM preincubated for 30 mins followed by LPS-stimulation and measured after 30 mins by DCFH-DA based fluorescence microplate reader analysis relative to control; format: functional; details: BV-2, 1 h, time 60 min
PC-12 [6] = assay: Cytotoxicity against rat PC-12 cells assessed as reduction in cell viability at 10 uM incubated for 2 hrs by MTT assay; format: toxicity, cell-based; details: pc-12, 2 h
BV-2 [7] = assay: Anti-neuroinflammatory activity in mouse BV-2 cells assessed as inhibition of LPS-induced NO production at 10 uM preincubated for 30 mins followed by LPS stimulation and measured after 24 hrs by Griess reagent based assay relative to control; format: functional; details: time 24.5 hrs
BV-2 [8] = assay: Anti-neuroinflammatory activity in mouse BV-2 cells assessed as inhibition of LPS-induced TNF-alpha production at 10 uM preincubated for 30 mins followed by LPS stimulation and measured after 24 hrs by ELISA analysis relative to control; format: functional; details: time 24.5 hrs

SMILES	IC50 [1]	inhibition at 10 µM [2]	also measured
Cc1ccc(COc2ccc(CNc3ccccc3)c(O)c2)cc1	366 nM	26.4%	
C[C@H](NCc1ccc(OCc2cccc(F)c2)cc1)C(N)=O [SAFINAMIDE]		25.7%	inhibition (Mus musculus): Active
Oc1cc(OCc2ccccc2F)ccc1CNc1ccccc1	334 nM	8.34%	
COc1cccc(COc2ccc(CNc3ccccc3)c(O)c2)c1	343 nM	< 5%	
Oc1ccc(/C=C/c2cc(O)cc(O)c2)cc1 [RESVERATROL]			Activity (BV-2 [3]): Non-Toxic; Activity (PC-12 [4]): 63.6%; inhibition at 10 µM (BV-2 [5]): 56.7%; Activity (PC-12 [6]): Non-Toxic; inhibition at 10 µM (BV-2 [7]): 51.8%; inhibition at 10 µM (BV-2 [8]): 52.2%

Continued, in another order:

IC50 [1]	inhibition at 10 µM [2]	SMILES	also measured
49 nM	52.5%	Oc1cc(OCc2ccc(Cl)c(Cl)c2)ccc1CNc1ccccc1	
297 nM	9.25%	Oc1cc(OCc2cccc(C(F)(F)F)c2)ccc1CNc1ccccc1	
249 nM	20.5%	Oc1cc(OCc2cccc(Cl)c2)ccc1CNc1ccccc1	
21 nM	48%	Oc1cc(OCc2ccc(F)c(F)c2)ccc1CNc1ccccc1	
